Laboratory results: publication PMC10978946, “Coumarin linked to 2-phenylbenzimidazole derivatives as potent α-glucosidase inhibitors” (Scientific Reports, 2024)
Where two headings read alike, the source gives them in different places.

Key:
[1] = biological target: T1, α-Glucosidase (Saccharomyces cerevisiae, EC3.2.1.20) (Saccharomyces cerevisiae, UniProt P53341); assay: biochemical; format: biochemical
T1 construct: purchased Sigma-Aldrich
Description: α-Glucosidase (Saccharomyces cerevisiae, EC3.2.1.20, 20 U/mg) and the substrate, […] (p-NPG) were purchased from Sigma-Aldrich, and the assay was performed exactly according to our previous report[34],[35].

[2] = biological target: α-glucosidase; settings: cited from earlier work; for fold more potent than acarbose: literature coumarin derivatives versus acarbose
[3] = biological target: yeast α-glucosidase; parameters: method as in PMID 26637946; settings: compound D and its acarbose control; cited from earlier work
[4] = biological target: T2, α-glucosidase (Saccharomyces cerevisiae, UniProt P53341); assay: Enzyme kinetic studies (Lineweaver–Burk plot, secondary plot); format: biochemical
T2 construct: purchased Sigma-Aldrich
T2 sequence (P53341 whole entry): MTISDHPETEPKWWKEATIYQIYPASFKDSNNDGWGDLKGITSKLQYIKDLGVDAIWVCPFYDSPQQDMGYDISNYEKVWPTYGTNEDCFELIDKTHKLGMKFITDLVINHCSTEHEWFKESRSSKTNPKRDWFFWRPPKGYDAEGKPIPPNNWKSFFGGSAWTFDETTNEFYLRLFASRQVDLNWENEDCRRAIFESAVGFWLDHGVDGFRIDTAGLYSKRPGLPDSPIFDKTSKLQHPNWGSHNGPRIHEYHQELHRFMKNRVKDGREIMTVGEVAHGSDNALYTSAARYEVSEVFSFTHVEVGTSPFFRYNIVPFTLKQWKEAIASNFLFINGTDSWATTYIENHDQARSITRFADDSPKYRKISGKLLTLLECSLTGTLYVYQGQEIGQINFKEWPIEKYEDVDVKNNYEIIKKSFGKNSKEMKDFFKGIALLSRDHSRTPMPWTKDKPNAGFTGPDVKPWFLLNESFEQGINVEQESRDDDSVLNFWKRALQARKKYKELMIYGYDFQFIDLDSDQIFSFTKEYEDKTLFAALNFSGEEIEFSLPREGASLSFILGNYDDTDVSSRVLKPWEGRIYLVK
Description: A Lineweaver–Burk plot was generated to identify the type of inhibition and Km value was determined from the plot between the reciprocal of the substrate concentration (1/[S]) and reciprocal of enzyme rate (1/V) over various inhibitor concentrations. Experimental Ki value was constructed by secondary plots of the inhibitor concentration [I] versus Km.

[5] = supplement sheet IC50 values, unrounded, unit inferred

T1 sequence (P53341 whole entry): as above

| IC50 [1] [µM] | IC50 [1, 5] [µM] | melting point [°C] | SMILES | also measured |
| --- | --- | --- | --- | --- |
| 30.6 ± 0.4 | 30.6 | 195 to 197 | O=C(Oc1ccc2ccc(=O)oc2c1)c1ccc2[nH]c(-c3ccc(F)cc3)nc2c1 [Compound 5b, 2-Oxo-2H-chromen-7-yl 2-(4-fluorophenyl)-1H-benzo[d]imidazole-5-carboxylate] |  |
| 45.2 ± 0.2 | 45.3 | 182 to 184 | O=C(Oc1ccc2ccc(=O)oc2c1)c1ccc2[nH]c(-c3cccc(Cl)c3Cl)nc2c1 [Compound 5h, 2-Oxo-2H-chromen-7-yl 2-(2,3-dichlorophenyl)-1H-benzo[d]imidazole-5-carboxylate] |  |
| 40.3 ± 0.5 |  | 169 to 171 | COc1ccc(-c2nc3cc(C(=O)Oc4ccc5ccc(=O)oc5c4)ccc3[nH]2)cc1 [Compound 5j, 2-Oxo-2H-chromen-7-yl 2-(4-methoxyphenyl)-1H-benzo[d]imidazole-5-carboxylate] |  |
|  |  |  | COc1cc(-c2nc3ccccc3[nH]2)ccc1OCC(=O)Nc1ccc(F)cc1 [Compound F] | IC50 ([2]; Fig. 1, compound F and its acarbose control): 99.6 µM |
|  |  |  | C/C(=N\OC(=O)/C=C/c1ccc(Br)cc1)c1cc2ccc(Br)cc2oc1=O [Compound C] | IC50 ([2]; Fig. 1, compound C and its acarbose control): 2.54 µM; fold more potent than acarbose [2]: 252 fold |
| 25.2 ± 0.5 | 25.2 | 172 to 174 | O=C(Oc1ccc2ccc(=O)oc2c1)c1ccc2[nH]c(-c3cccc(Br)c3)nc2c1 [Compound 5f, 2-Oxo-2H-chromen-7-yl 2-(3-bromophenyl)-1H-benzo[d]imidazole-5-carboxylate] |  |
| 40.9 ± 1.1 | 40.9 | 182 to 184 | Cc1c(Cl)cccc1-c1nc2cc(C(=O)Oc3ccc4ccc(=O)oc4c3)ccc2[nH]1 [Compound 5m, 2-Oxo-2H-chromen-7-yl 2-(3-chloro-2-methylphenyl)-1H-benzo[d]imidazole-5-carboxylate] |  |
|  |  |  | Cc1cc2nc(-c3ccc(C(=O)N/N=C/c4cc(O)c(O)c(O)c4)cc3)[nH]c2cc1C [Compound D] | IC50 [3]: 8.4 µM |
| 22.9 ± 0.2 | 23 | 179 to 181 | O=C(Oc1ccc2ccc(=O)oc2c1)c1ccc2[nH]c(-c3ccc(Br)cc3)nc2c1 [Compound 5d, 2-Oxo-2H-chromen-7-yl 2-(4-bromophenyl)-1H-benzo[d]imidazole-5-carboxylate] |  |
| 26.9 ± 1.1 | 26.9 | 180 to 182 | O=C(Oc1ccc2ccc(=O)oc2c1)c1ccc2[nH]c(-c3ccc(Cl)cc3)nc2c1 [Compound 5c, 2-Oxo-2H-chromen-7-yl 2-(4-chlorophenyl)-1H-benzo[d]imidazole-5-carboxylate] |  |
|  |  |  | Cc1ccc(/C=C/C(=O)Oc2cc(=O)oc3ccccc23)cc1 [Compound B] | IC50 ([2]; Fig. 1, compound B and its ursolic acid control): 13 µM |
| 34.7 ± 0.7 | 34.7 | 189 to 191 | O=C(Oc1ccc2ccc(=O)oc2c1)c1ccc2[nH]c(-c3ccccc3Cl)nc2c1 [Compound 5e, 2-Oxo-2H-chromen-7-yl 2-(2-chlorophenyl)-1H-benzo[d]imidazole-5-carboxylate] |  |
|  |  |  | COc1ccc(-c2nc3cc(C(=O)N/N=C/c4cccs4)ccc3[nH]2)cc1 [Compound E] | IC50 ([2]; Fig. 1, compound E and its acarbose control): 60.1 µM |
| 44.9 | 44.9 | 193 to 195 | Cc1ccc(-c2nc3cc(C(=O)Oc4ccc5ccc(=O)oc5c4)ccc3[nH]2)cc1 [Compound 5i, 2-Oxo-2H-chromen-7-yl 2-(p-tolyl)-1H-benzo[d]imidazole-5-carboxylate] |  |
|  |  |  | O=C(N/N=C/c1ccccc1O)c1cc2ccccc2oc1=O [Compound A] | IC50 ([2]; Fig. 1, compound A and its acarbose control): 1.1 µM; fold more potent than acarbose [2]: 35.8 fold |
| 46.7 ± 0.2 | 46.7 | 201 to 203 | O=C(Oc1ccc2ccc(=O)oc2c1)c1ccc2[nH]c(-c3ccc(F)cc3F)nc2c1 [Compound 5g, 2-Oxo-2H-chromen-7-yl 2-(2,4-difluorophenyl)-1H-benzo[d]imidazole-5-carboxylate] |  |

| SMILES | IC50 [1] [µM] | IC50 [1, 5] [µM] | melting point [°C] | also measured |
| --- | --- | --- | --- | --- |
| O=C(Oc1ccc2ccc(=O)oc2c1)c1ccc2[nH]c(-c3ccccc3)nc2c1 [Compound 5a, 2-Oxo-2H-chromen-7-yl 2-phenyl-1H-benzo[d]imidazole-5-carboxylate] | 50 ± 0.8 | 50 | 180 to 183 | fold better than acarbose ([1]; ratio of IC50 values versus acarbose): approximately 15 fold |
| O=C(Oc1ccc2ccc(=O)oc2c1)c1ccc2[nH]c(-c3ccccc3O)nc2c1 [Compound 5k, 2-Oxo-2H-chromen-7-yl 2-(2-hydroxyphenyl)-1H-benzo[d]imidazole-5-carboxylate] | 10.8 ± 0.1 |  | 187 to 189 | fold more potent than compound 5d ([1]; IC50 comparison 5k versus 5d): twofold; inhibition pattern ([4]; Lineweaver–Burk plot, Km increased, Vmax unchanged): competitive inhibition pattern; Ki ([4]; from plot of Km versus inhibitor concentration, substrate p-nitrophenyl α-D-glucopyranoside 1–16 mM, read-out: inhibition constant (Ki)): 10.4 µM |
| Cc1c(-c2nc3cc(C(=O)Oc4ccc5ccc(=O)oc5c4)ccc3[nH]2)cccc1[N+](=O)[O-] [Compound 5l, 2-Oxo-2H-chromen-7-yl 2-(2-methyl-3-nitrophenyl)-1H-benzo[d]imidazole-5-carboxylate] | 119.5 ± 0.1 | 119 | 194 to 196 | fold decrease of inhibitory activity versus compound 5m ([1]; 3-chloro replaced with 3-nitro): three folds |
